From ChEMBL document CHEMBL1201862, “PubChem BioAssay data set” (2004)
The source made the active and inactive calls.

What was measured:
[1] = growth suppression of PTEN-null colon cells, dose response, cell-based, HCT116 PTEN knockout (AID 1047); format: functional;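 further: HCT116 colon tumor cells with PTEN knocked out; cells exposed to compound for 60 hours before readout; potency for loss of cell viability measured by luminescence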
[2] = growth suppression of beta-catenin-knockout colon cells, dose response, cell-based, HCT116, human colon tumor (AID 1045); format: functional;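 further: HCT116 colon tumor cells with beta catenin knocked out; cells exposed to compound for 60 hours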
[3] = Shn3 3'UTR reporter inhibitors, dose response, cell-based, Clone20 osteoblasts, firefly luciferase, cherry-picked (AID 624132); format: functional;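 further: firefly luciferase luminescence from reporter carrying the Shn3 3'UTR in osteoblasts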
Cytochrome P450 1A2 = molecular target: T1, Cytochrome P450 1A2 (Homo sapiens, UniProt P05177);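 further: PubChem cytochrome P450 panel assay, CYP1A2 panel member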
T1 sequence (P05177 whole entry): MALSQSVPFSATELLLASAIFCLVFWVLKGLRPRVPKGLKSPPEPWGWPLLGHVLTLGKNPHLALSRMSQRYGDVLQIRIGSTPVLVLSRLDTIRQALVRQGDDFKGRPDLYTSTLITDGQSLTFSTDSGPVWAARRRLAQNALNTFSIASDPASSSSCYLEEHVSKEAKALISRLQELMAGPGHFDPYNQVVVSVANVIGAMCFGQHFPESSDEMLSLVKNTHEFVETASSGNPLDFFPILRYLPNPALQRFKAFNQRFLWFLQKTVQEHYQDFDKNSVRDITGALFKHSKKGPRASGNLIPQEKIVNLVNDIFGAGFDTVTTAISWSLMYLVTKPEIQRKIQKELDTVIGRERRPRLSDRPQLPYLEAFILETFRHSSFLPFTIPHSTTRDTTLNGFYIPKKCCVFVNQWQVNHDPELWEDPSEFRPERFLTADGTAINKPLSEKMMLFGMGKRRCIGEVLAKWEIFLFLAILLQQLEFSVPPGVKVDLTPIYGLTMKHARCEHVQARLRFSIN

Large T antigen = Large T antigen (Simian virus 40, UniProt P03070); format: functional, Betapolyomavirus macacae;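 further: Confirmatory-stage PubChem screen for compounds that inhibit SV40 T antigen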
Chain of Large T antigen (P03070 whole entry): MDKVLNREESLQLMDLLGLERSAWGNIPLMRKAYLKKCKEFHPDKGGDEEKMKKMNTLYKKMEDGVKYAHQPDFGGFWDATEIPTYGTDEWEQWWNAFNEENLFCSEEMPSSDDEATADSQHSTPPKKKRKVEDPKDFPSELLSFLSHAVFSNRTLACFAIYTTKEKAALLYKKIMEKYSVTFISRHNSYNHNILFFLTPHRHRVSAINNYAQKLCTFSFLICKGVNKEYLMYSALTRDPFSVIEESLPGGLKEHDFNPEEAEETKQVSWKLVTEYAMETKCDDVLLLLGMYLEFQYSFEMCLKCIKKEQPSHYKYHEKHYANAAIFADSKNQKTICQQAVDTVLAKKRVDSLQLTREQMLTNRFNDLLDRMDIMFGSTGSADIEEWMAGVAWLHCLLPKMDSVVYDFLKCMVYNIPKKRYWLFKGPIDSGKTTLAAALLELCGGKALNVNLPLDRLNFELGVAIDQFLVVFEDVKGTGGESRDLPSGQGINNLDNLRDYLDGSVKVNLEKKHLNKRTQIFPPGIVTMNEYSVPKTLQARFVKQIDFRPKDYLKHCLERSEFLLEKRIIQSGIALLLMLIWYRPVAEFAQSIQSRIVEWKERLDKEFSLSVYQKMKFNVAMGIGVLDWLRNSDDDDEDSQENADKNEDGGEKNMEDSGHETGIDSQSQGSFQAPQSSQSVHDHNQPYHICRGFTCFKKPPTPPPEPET

[4] = HEp-2 cell cytotoxicity, dose response, cytotoxicity control for RSV inhibitor project, HTS (AID 2410); format: functional; settings: human respiratory syncytial virus
[5] = molecular target: Induced myeloid leukemia cell differentiation protein Mcl-1 (Homo sapiens, UniProt Q07820); format: functional
Chain of Induced myeloid leukemia cell differentiation protein Mcl-1 (Q07820 whole entry): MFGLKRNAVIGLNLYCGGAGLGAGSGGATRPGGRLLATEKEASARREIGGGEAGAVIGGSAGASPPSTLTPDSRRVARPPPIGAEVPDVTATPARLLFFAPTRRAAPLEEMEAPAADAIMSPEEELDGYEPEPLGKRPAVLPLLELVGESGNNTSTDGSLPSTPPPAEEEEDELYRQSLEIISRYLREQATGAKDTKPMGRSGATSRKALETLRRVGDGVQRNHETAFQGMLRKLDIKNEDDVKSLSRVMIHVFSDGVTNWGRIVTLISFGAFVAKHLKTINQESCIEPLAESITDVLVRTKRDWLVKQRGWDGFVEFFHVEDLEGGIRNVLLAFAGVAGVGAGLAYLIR

H4 = assay: Luminescence Cell-Based Dose Response HTS to Identify Activators of 5'UTR Stem-Loop Driven Prion Protein mRNA Translation in H4 Neuroglioblastoma Cells. [Related pubchem assays: 1829 (Project Summary), 1814 (Primary HTS)]; format: functional; settings: Homo sapiens
[6] = Luminescence Cell-Based Dose Response HTS to Identify Activators of Luciferase Translation or Activity in H4 […] Cells. [Related pubchem assays: 1829 (Project Summary), 1814 (Primary HTS)]; format: functional
[7] = molecular target: T2, Ubiquitin-conjugating enzyme E2 N (Homo sapiens, UniProt P61088); format: functional;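 further: Dose-response confirmation in a TR-FRET assay detecting UBC13-driven polyubiquitin chain formation, inhibition measured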
T2 sequence (P61088 whole entry): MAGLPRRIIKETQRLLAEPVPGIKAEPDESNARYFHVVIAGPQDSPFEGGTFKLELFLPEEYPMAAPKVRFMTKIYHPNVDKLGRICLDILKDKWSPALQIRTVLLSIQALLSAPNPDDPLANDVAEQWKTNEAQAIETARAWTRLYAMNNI

[8] = molecular target: T3, Rac GTPase-activating protein 1 (Homo sapiens, UniProt Q9H0H5); assay: MgcRacGAP GTPase-activating activity inhibitors, confirmation, biochemical, ADP Hunter fluorescence, primary and confirmatory (AID 624330); format: functional
T3 sequence (Q9H0H5 whole entry): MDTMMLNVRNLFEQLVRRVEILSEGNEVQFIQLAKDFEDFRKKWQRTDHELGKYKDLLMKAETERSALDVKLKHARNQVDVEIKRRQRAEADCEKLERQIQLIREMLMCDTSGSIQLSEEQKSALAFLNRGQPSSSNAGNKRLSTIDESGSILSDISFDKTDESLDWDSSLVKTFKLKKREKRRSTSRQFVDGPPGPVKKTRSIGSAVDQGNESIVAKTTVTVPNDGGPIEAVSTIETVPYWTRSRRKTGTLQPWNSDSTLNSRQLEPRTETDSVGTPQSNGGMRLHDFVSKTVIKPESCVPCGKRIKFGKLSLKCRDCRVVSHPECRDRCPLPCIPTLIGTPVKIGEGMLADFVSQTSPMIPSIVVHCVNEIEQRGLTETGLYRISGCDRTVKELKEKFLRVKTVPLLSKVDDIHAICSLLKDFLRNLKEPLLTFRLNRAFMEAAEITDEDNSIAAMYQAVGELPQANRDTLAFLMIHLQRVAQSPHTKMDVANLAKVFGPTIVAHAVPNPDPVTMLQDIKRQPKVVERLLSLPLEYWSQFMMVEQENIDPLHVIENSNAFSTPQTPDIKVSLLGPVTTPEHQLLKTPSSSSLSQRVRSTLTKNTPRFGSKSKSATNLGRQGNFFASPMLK

Nonstructural protein 1 = Nonstructural protein 1 (Influenza A virus, UniProt Q194T2); format: functional, Influenza A virus (A/California/07/2009(H1N1))
Chain of Nonstructural protein 1 (Q194T2 whole entry): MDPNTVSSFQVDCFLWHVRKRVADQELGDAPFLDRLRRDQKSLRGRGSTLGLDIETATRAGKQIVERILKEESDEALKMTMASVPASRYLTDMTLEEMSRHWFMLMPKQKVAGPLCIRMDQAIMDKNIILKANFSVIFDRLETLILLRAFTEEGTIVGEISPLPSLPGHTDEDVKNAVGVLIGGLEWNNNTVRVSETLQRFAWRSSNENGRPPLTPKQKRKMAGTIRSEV

INS1 = assay: beta cell apoptosis inhibitors, cytokine rescue, dose response, luminescence, retest (AID 449756); format: functional, cell-based; settings: Rattus norvegicus;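 further: cell death triggered by IL-1 beta plus TNF-alpha plus IFN-gamma mixture; protective hits raise ATP signal compared with cytokine alone wells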
cells = format: functional
[9] = P. falciparum Dd2 growth inhibitors, dose response, SYBR Green, cherry-picked samples (AID 1159567); format: functional, cell-based
[10] = cytotoxicity toward NIH3T3 fibroblasts, dose response, counter-screen, cell-based, ATP luminescence, mouse fibroblasts (AID 2010); format: functional;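 further: cells exposed to compound for about 90 hours before reading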
[11] = inhibitors of intracellular T. cruzi replication, confirmation, NIH3T3 host cells, beta-gal luminescence (AID 2044); format: functional, cell-based;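 further: intracellular parasites grown in NIH/3T3 mouse fibroblasts as host cells; luminescent beta-galactosidase reporter signal from transgenic T. cruzi replicating inside host cells; inhibitors lower the luminescence signal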
[12] = Luminescence Cell-Based Dose Retest to Confirm Inhibitors of Cancer Stem Cells. [Related pubchem assays (depositor defined):AID2717, AID2721]; format: functional; settings: Homo sapiens
[13] = inhibitors of clade B AD8 Env fusion, dose response, cell-based, cherry-pick (AID 652062); format: functional;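 further: luciferase signal from cell-cell fusion driven by HIV-1 clade B AD8 Env; potency is for inhibitors of fusion seen as a drop in luminescence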
[14] = molecular target: T4, RNA-binding protein pos-1 (Caenorhabditis elegans, UniProt G5EF15); assay: inhibitors of POS-1/mex-3 RNA binding, dose response, biochemical, fluorescence polarization (AID 1964);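 further: purified POS-1 fused to maltose binding protein made in E. coli; potency of compounds blocking POS-1 binding to fluorescent RNA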
T4 sequence (G5EF15 whole entry): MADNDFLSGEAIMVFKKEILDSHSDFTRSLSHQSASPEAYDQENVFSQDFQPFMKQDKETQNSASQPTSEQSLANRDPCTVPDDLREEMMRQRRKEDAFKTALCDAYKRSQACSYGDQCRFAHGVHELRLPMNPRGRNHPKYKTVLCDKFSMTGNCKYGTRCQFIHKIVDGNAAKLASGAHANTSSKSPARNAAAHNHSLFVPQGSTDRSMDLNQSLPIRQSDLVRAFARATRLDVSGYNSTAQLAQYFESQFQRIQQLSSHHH

[15] = molecular target: T5, Zinc finger protein mex-5 (Caenorhabditis elegans, UniProt Q9XUB2); assay: MEX-5/TCR-2 RNA interaction inhibitors, dose response, biochemical, C. elegans, fluorescence polarization (AID 1960)
T5 sequence (Q9XUB2 whole entry): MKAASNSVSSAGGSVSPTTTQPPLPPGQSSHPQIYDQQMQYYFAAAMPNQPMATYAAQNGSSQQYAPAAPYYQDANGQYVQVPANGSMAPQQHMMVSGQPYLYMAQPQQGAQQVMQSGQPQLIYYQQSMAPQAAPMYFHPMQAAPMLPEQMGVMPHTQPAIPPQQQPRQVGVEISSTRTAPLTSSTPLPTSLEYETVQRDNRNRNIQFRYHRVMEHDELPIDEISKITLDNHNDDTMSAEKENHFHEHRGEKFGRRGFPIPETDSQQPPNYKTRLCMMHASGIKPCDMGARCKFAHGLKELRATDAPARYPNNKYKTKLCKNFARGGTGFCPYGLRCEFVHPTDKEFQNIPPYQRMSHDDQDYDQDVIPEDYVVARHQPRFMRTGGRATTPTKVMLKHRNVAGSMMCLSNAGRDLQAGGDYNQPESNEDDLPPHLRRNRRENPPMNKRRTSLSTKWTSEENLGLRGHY

[16] = ZM109 Env clade C HIV-1 fusion inhibitors, dose response, HeLa effector, CEM target cells, luciferase, cherry-pick (AID 652058); format: functional, cell-based

O=C(NCC1OCCc2ccccc21)c1ccc(NC(=O)c2cccc(Br)c2)cc1 (stereo unspecified)
EC50 [1]: 25.2 µM (active) | EC50 [2]: 36.9 µM (active)

CCCCN1CC(COCc2ccccc2)Oc2cccc(Oc3ccc(C)cc3)c2S1(=O)=O (stereo unspecified)
AC50 [3]: 10.7 µM (active)

CCC(=O)c1ccc(OCC(O)CN(CCc2ccccc2)Cc2ccccc2)cc1 (stereo unspecified)
AC50 (Cytochrome P450 1A2): 20 µM (inconclusive) | EC50 [1]: 49.2 µM (active) | EC50 [2]: 83.6 µM (active)

Oc1ccc(-c2nc3ncccn3c2Nc2ccc3c(c2)OCO3)cc1
IC50 (Large T antigen): 15.6 µM (active)

C=CCOc1ccccc1CNc1ccc2[nH]c(O)nc2c1
IC50 (Large T antigen): 19 µM (active) | CC50 [4]: 21.8 µM (active)

CCOc1ccc(C2C3=C(O)c4ccccc4C3=Nc3nc(N)nc(O)c32)cc1 (stereo unspecified)
IC50 [5]: > 54 µM (active)

Cc1cccc(-c2nc(C#N)c(NCC3CCCO3)o2)c1 (stereo unspecified)
EC50 (H4): 36 µM (active) | EC50 [6]: 1.97 µM (active)

Cc1cc(NC(=O)CSc2nc3c(c(=O)n2-c2ccc(Br)cc2)SCC3)no1
EC50 [2]: 155 µM (active)

CCCC(=O)N(CCN1CCOCC1)c1nc2c(C)cccc2s1
IC50 [7]: > 20 µM (inactive)

CCOc1cc(/C=N/NC(=O)CCc2nnc(O)nc2O)ccc1O
IC50 (Large T antigen): 32.7 µM (active) | IC50 [8]: 59.5 µM (active)

Cc1ccccc1NC(=S)N/N=C/c1ccc(O)cc1O
IC50 (Nonstructural protein 1): 11.2 µM (active) | AC50 (INS1): 2.54 µM (active)

Cc1nnc(SCC(=O)Nc2ccc(N(C)C)cc2)n(N)c1=O
IC50 (Large T antigen): 11.6 µM (active)

O=C1NC(=O)N(Cc2ccc(F)cc2)C(=O)/C1=C\c1ccc([N+](=O)[O-])s1
IC50 (cells): 24.7 µM (active)

CN(C)c1ccc(NC(=O)CCN2CCN(c3ccccn3)CC2)cc1
IC50 (Large T antigen): 6.73 µM (active)

CC(NC(=O)c1ccco1)C(=O)Nc1nc(-c2ccccn2)cs1 (stereo unspecified)
IC50 (Nonstructural protein 1): 9.55 µM (active)

Cc1ccccc1S(=O)(=O)N1[C@H](C#N)[C@H](c2ccc(C#CC3CCCC3)cc2)[C@@H]1CO
AC50 [9]: 5.11 µM (active)

FC(F)(F)C1=CC(c2ccccc2)=NCCN1
IC50 [5]: 9.33 µM (not active)

O=C(Nc1ccc(-c2nc3ccccc3c(=O)o2)cc1)c1ccco1
IC50 (cells): 0.84 µM (active)

C/C(=N\NC(=O)CSCc1ccc([N+](=O)[O-])cc1)c1ccccc1O
IC50 [7]: > 20 µM (inactive)

O=C(Nc1nc2ccccc2[nH]1)c1ccc(Cl)c([N+](=O)[O-])c1
IC50 [5]: 6.46 µM (active)

C/C(=N\NC(=O)c1cc([N+](=O)[O-])cc([N+](=O)[O-])c1)c1ccco1
EC50 [10]: > 60 µM (not active) | EC50 [11]: 0.768 µM (active) | IC50 (cells): 3.35 µM (active)

CCOC(=O)c1sc2nc3n(c(=O)c2c1C)CCCCC3
EC50 (H4): 101 µM (active) | EC50 [6]: 27.9 µM (active)

NCCCC[C@@H](C(=O)N1CCNCC1)n1cc(CN)nn1
IC50 [7]: > 20 µM (inactive)

CCC1(C)Cc2c(sc3nnn(CC(=O)Nc4cccc5ccccc45)c(=O)c23)CO1 (stereo unspecified)
EC50 [1]: 25.8 µM (active) | EC50 [2]: 23.9 µM (active)

CCOC(=O)CC(=O)Nc1ccc(C(=O)OCC)cc1
IC50 (cells): 22.4 µM (active)

COc1ccc(C2NCCc3c2[nH]c2ccccc32)cc1CSc1nc2ccccc2s1 (stereo unspecified)
EC50 [1]: 12.1 µM (active) | EC50 [2]: 10.1 µM (active) | AC50 [12]: 3.13 µM (active)

COc1ccc(/C=C/C(O)=C2\C(=O)NC(=O)N(CCC3=CCCCC3)C2=O)cc1
EC50 [1]: 13.7 µM (active) | EC50 [2]: 14.4 µM (active) | AC50 [12]: 2.71 µM (active)

O=C(NCC1CCCCC1)c1ccc(F)cc1Cl
EC50 (H4): > 120 µM (not active) | EC50 [6]: 107 µM (active)

COc1ccc(/C=C/c2nc(S(=O)(=O)c3ccccc3)c(NCCCN(C)C)o2)cc1OC
AC50 [13]: 14.6 µM (active)

CCN(CC)c1ccc(N=Nc2nc[nH]n2)cc1
EC50 [14]: 73.4 µM (active) | EC50 [15]: > 300 µM (inconclusive)

COC(=O)C1CCN(C(=O)COC(=O)c2cc(S(=O)(=O)N3CCOCC3)ccc2C)CC1
AC50 [13]: 45.6 µM (active) | AC50 [16]: 17.5 µM (active)

CC1=CC(C)(C)n2c(O)c(/N=N/C(=N)S)c3cc(C)cc1c32
IC50 [7]: > 20 µM (inactive)

C=C[C@](C)(CC[C@@]1(C)C(C)CC(OC2OC(C)C(OC3OC(COC(C)=O)C(O)C(O)C3O)C(O)C2O)[C@@]2(C)C(C)=CCCC12)OC1OC(C)C(O[C@@H]2O[C@@H](C)C(O)C(O)[C@H]2O)C(O)C1O (stereo partly specified)
IC50 [7]: > 20 µM (inactive)
